Results from US20190119348A1, “PARATHYROID HORMONE RECEPTOR 1 ANTAGONIST AND INVERSE AGONIST POLYPEPTIDES AND METHODS OF THEIR USE” (The General Hospital Corporation, priority 2016, published 2019).
Where a SMILES comes first, the peptide text is derived from it. [ ]: non-standard residue; d: D form.

Target: T1, endogenous hPTHR1 (Homo sapiens, UniProt Q03431)
T1 construct: Saos-2, in which is endogenously expressed the hPTHR1; endogenous in cells
T1 sequence (Q03431 27-593): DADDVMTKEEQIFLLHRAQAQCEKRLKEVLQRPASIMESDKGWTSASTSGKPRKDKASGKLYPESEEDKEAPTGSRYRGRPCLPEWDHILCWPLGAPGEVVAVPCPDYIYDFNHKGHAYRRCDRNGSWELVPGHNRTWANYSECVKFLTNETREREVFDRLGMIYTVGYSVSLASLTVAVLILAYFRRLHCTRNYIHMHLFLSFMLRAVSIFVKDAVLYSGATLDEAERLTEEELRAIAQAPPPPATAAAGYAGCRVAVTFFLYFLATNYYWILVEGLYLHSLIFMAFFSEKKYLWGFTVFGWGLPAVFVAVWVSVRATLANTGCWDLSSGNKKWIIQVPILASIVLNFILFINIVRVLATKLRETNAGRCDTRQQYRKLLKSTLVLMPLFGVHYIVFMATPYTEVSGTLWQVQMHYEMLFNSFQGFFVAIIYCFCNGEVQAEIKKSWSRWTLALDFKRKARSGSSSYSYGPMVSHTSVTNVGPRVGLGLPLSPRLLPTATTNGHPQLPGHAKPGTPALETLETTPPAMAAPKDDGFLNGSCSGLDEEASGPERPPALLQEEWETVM
Test: Antagonism of PTH(1-34)- and PTHrP(1-36)-induced cAMP response (GloSensor) in SGS-72 cells
Assay type: cell-based
Settings: IC50 PTH(1-34) (Table 6, nanomolar value), antagonist pre-treatment 15 minutes, PTH(1-34) 0.3 nM
How it was run: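 SaOS2-derived SGS-72 cells, which express endogenous hPTHR1 and a stable GloSensor cAMP reporter, were loaded with 0.5 mM luciferin for 15 min at room temperature in CO2-independent medium with 0.1% BSA. Antagonist was tested against PTH(1-34) or PTHrP(1-36), with luminescence taken at the agonist-alone maximum; pIC50 came from four-parameter fits.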

- IC50: 2.57 nM
SMILES: CC[C@H](C)[C@H](N)C(=O)N[C@@H](CCC(N)=O)C(=O)N[C@@H](CC(C)C)C(=O)N[C@@H](CCSC)C(=O)N[C@@H](Cc1c[nH]cn1)C(=O)N[C@@H](CCC(N)=O)C(=O)N[C@@H](CC(C)C)C(=O)N[C@H](Cc1c[nH]c2ccccc12)C(=O)N[C@@H](CCCCN)C(=O)N[C@@H](Cc1c[nH]c2ccccc12)C(=O)N[C@H](C(=O)N[C@@H](CCC(N)=O)C(=O)N[C@@H](CC(=O)O)C(=O)N[C@@H](C)C(=O)N[C@@H](CCCNC(=N)N)C(=O)N[C@@H](CCCNC(=N)N)C(=O)N[C@@H](CCCNC(=N)N)C(=O)N[C@@H](C)C(=O)N[C@@H](Cc1c[nH]c2ccccc12)C(=O)N[C@@H](CC(C)C)C(=O)N[C@@H](Cc1c[nH]cn1)C(=O)N[C@@H](CCCCN)C(=O)N[C@@H](CC(C)C)C(=O)N[C@H](C(=O)N[C@@H](C)C(=O)N[C@@H](CCC(=O)O)C(=O)N[C@H](C(=O)N[C@@H](Cc1c[nH]cn1)C(=O)N[C@H](C(=O)N[C@@H](C)C(=O)N[C@@H](CCC(=O)O)C(=O)N[C@H](C(N)=O)[C@@H](C)CC)[C@@H](C)O)[C@@H](C)CC)[C@@H](C)CC)[C@@H](C)CC [compound 2003, L11, dW12, W23-LA-PTH(5-36)-2003] (H-IQLMHQL[dW]KWIQDARRRAWLHKLIAEIHTAEI-NH2; N-terminus assumed)
